Results reported in patent publication US11185551B2, “Peripherally-restricted dual-acting kappa and delta opioid agonist for analgesia in pain states involving the inflammatory response” (Caventure Drug Discovery, Inc., priority 2017, dated 2021).

What was measured:
[1] = tested on: CFA-induced mechanical hyperalgesia; assay: CFA model of rheumatoid arthritis pain in rats (joint compression thresholds); format: in vivo, male Sprague-Dawley rats; settings: for improvement of compression thresholds vs vehicle: 30 mg/kg PO
Description: Following IACUC approval and acclimation, inflammatory arthritis pain was induced in 55 male, Sprague-Dawley rats by intracapsular injection of 50 μL of 100% complete Freund's adjuvant (CFA) into the tibio-tarsal joint of the left hind leg. Mechanical hyperalgesia was assessed via joint compression thresholds (JCTs), JCTs were determined prior to CFA injection and 14 days post-CFA, prior to study article administration. At that time, 50 animals that met the inclusion criterion were randomly assigned to 5 groups with 10 animals per group (Table 3). To further confirm the validity as a model for arthritic pain, the anti-inflammatory cyclooxygenase-2 inhibitor, celecoxib, was used as an active control.
(§1) Animals were administered a single dose of test or control compound on day 0 (i.e., 14 days after administration of CFA) and thresholds were determined 1, 2, and 4 hours after compound administration. JCTs in test compound-treated animals were compared to those in vehicle-treated animals to determine the analgesic efficacy of the test compound. All behavioral evaluations were performed by a blinded observer.
Mechanical hyperalgesia was measured using a digital Randall-Selitto device (dRS; IITC Life Sciences©; Woodland Hills, Calif.; see Randall, L. O., and J. J. Selitto, “A Method for Measurement of Analgesic Activity on Inflamed Tissue.” Arch. Int. Pharmcodyn. 11 (1957): 409-19). Animals were allowed to acclimate to the testing room for a minimum of 15 minutes before testing. Animals were placed in a restraint sling that suspended the animal, leaving the hind limbs available for testing. The stimulus was applied to the ankle joint by a blunt tip and pressure was applied gradually over approximately 10 seconds. Joint compression threshold values were recorded at the first observed nocifensive behavior (vocalization, struggle, or withdrawal). One reading per joint was taken at each time point, and a maximum stimulus cutoff of 500 grams was used to prevent injury to the animal. The mean and standard error of the mean (SEM) were determined for ipsilateral and contralateral joints for each treatment group at each time point.
All testing was performed in a blinded manner, with all experimenters involved in the study being unaware of the group assignment of any animal they were testing. Animals were assigned to treatment groups based on Day 0 pre-dosing JCTs so that group means of the ipsilateral JCTs were approximately equal. Animals were ranked by ipsilateral JCT and treatments assigned randomly within stratified sub-groups according to the total number of treatment groups in the study. The volume of test or control article injected was 5 mL/kg. The animals were dosed in sequence based on animal number so that the distribution of treatment across a given set of animals was not predictable.

[2] = tested on: formalin-evoked spontaneous nociceptive behaviors; assay: Formalin model of pain in mice; format: in vivo, C57BL6 mice
Description: The objective of this study was to evaluate the effects of Compound 1 and a peripherally-restricted kappa agonist (ICI204448) on formalin-evoked spontaneous nociceptive behaviors in mice. The study was performed by video recording of formalin-induced nociceptive behavior and then off-line scoring using a computer.
Subcutaneous plantar injection of formalin causes a bi-phasic nocifensive behavioral response in rodents. The early phase (phase 1) lasts for about 5-10 minutes, following which an interphase occurs without any discernible nociceptive reactions, after which the late phase (phase 2) nociceptive reaction ensues continuing from about 20-60 min following formalin injection. Thus, phase 2 of the formalin model is a model of continuously present, persistent pain, and is widely used for rapid screening of novel analgesic compounds. The model encompasses inflammatory, neurogenic and central mechanisms of nociception, and the late phase (phase 2), in particular, is considered as a pharmacodynamic surrogate of central sensitization.
In the present study, the effects of Compound 1 and ICI204448 were assessed from 0-5 minutes for the early phase (phase 1) and from 20-35 minutes for the late phase (phase 2) of formalin-induced nociceptive behavior.
Following IACUC approval and acclimation C57BL6 mice (Charles River Canada Inc.), 20-30 g, were randomly assigned into groups with 8 mice per group as provided in Table 1:
All animals were acclimated to the observation chamber for about 15 minutes immediately prior to formal in injection. […]
Following injection of the formalin all animals were returned immediately to the observation chamber and formalin-evoked spontaneous nociceptive behaviors in the mice were continuously recorded for 0-40 minutes using a commercial camcorder. […]
Scoring from the recorded video files were done off-line using a computer by a blinded observer who has been validated to score such nociceptive behaviors in rodents. The total (cumulative) time spent in a 5-minute bin was recorded using a stop-watch for the following nociceptive behaviors: biting and licking of the formalin-injected paw.
Effects of the ICI204448 or Compound 1 were assessed in the following time periods: 0-5 minutes for the early phase (phase 1) and 20-35 minutes for the late phase (phase 2).
Mice were injected with formalin in the hind paw after pretreatment with vehicle, high and low doses of a peripherally-restricted kappa opioid agonist (ICI204448) and high and low doses of the peripherally-restricted Compound 1. Pain was measured for 35 minutes after injection. Additionally, urine output was measured using metabolic cages in each group of mice. […]

[3] = tested on: SNL-induced mechanical hyperalgesia; assay: Spinal nerve ligation (SNL) model for neuropathic pain in the rat (paw compression thresholds); format: in vivo, male Sprague-Dawley rats
Description: Following IACUC approval and acclimation, neuropathy was induced in 55 male, Sprague-Dawley rats by surgically ligating the 5th and 6th lumbar spinal nerves (L5 and L6), a procedure also known as spinal nerve ligation (SNL). Mechanical sensitivity was assessed via paw compression thresholds using a digital Randall-Selitto device. Thresholds were determined prior to surgery and 15 days post-surgery, prior to study article administration. At that time, 50 animals that met the inclusion criteria were assigned to 5 groups with 10 animals per group (Table 5). To further confirm the validity as a model for neuropathic pain, gabapentin was used as an active control.
as §1, with “15” for “14”, “SNL)” for “administration of CFA)”, “Response thresholds” for “JCTs”
Mechanical hyperalgesia was measured using a digital Randall-Selitto device (dRS; IITC Life Sciences©; Woodland Hills, Calif.) (see Randall, L. O., and J. J. Selitto. “A Method for Measurement of Analgesic Activity on Inflamed Tissue.” Arch. Int. Pharmcodyn. 11 (1957): 409-19). Animals were allowed to acclimate to the testing room for a minimum of 15 minutes before testing. Animals were placed in a restraint sling that suspends the animal, leaving the hind limbs available for testing. The stimulus was applied to the plantar surface of the hind paw by a cone-shaped tip and pressure was applied gradually over approximately 10 seconds. Paw compression threshold values were recorded at the first observed nocifensive behavior (vocalization, struggle, or withdrawal). One reading per paw was taken at each time point, and a maximum stimulus cutoff of 300 grams was used to prevent injury to the animal. The mean and standard error of the mean (SEM) were determined for ipsilateral and contralateral paws for each treatment group at each time point.
All testing was performed in a blinded manner, with all experimenters involved in the study being unaware of the group assignment of any animal they were testing.
Animals were assigned to treatment groups based on Day 0 pre-dosing dRS paw compression thresholds so that group means of the ipsilateral paw compression thresholds were approximately equal. Animals were ranked by ipsilateral paw compression threshold measurement from lowest to highest and treatments assigned randomly within stratified sub-groups according to the total number of treatment groups in the study.
The volume of test or control article injected was 5 mL/kg. The animals were dosed in sequence based on animal number, so that the distribution of treatment across a given set of animals was not predictable.

[4] = tested on: osteolytic bone cancer pain induced by MRMT-1 inoculation; assay: MRMT-1 model of osteolytic bone cancer pain in the rat (percent weight bearing score); format: in vivo, female Sprague-Dawley rats
Description: Osteolytic bone cancer was produced by an injection of 3000 mammary gland carcinoma cells (MRMT-1) into the intramedullary space of the tibia. Animals received either vehicle or Compound 1 (10 mg/kg) intraperitoneally on Day 0. Morphine (6 mg/kg) served as the positive control for this study and was administered via subcutaneous injection. Bone cancer pain was assessed by measuring hind limb percent weight bearing scores (percent WBS) prior to inoculation (study day −21), and prior to administration (BL), 1, 2, and 4 hours after administration on Day 0.
Hind limb weight bearing scores (WBS) are measured using a Linton Incapacitance Tester (Stoelting Co.©, Wood Dale, Ill.; see Medhurst, S. J., K. Walker, M. Bowes, B. L. Kidd, M. Glatt, M. Muller, M. Hattenberger, J. Vaxelaire, T. O'Reilly, G. Wotherspoon, J. Winter, J. Green, and L. Urban. “A Rat Model of Bone Cancer Pain.” Pain 96 (2002): 129-40). Animals were allowed to acclimate to the testing room for a minimum of 15 minutes before testing. Animals are placed in an acrylic test chamber. When the animal is in the correct position in the test chamber an evaluation of force was taken, with the evaluation measuring the average force exerted individually by each hind paw over a three second interval. Three evaluations of force per animal are taken at each time point. The percent WBS for the injured leg is calculated for each evaluation of force using the following formula: […]
The mean of the 3% WBS values is taken as the % WBS for that time point. The mean and standard error of the mean (SEM) are determined for each treatment group at each time point.
Dosing: The volume of test or negative control article injected was 5 mL/kg via intraperitoneal injection or 2 mL/kg via subcutaneous injection for morphine. The animals were dosed in sequence based on animal number, so that the distribution of treatment across a given set of animals was not predictable (Table 7).

Cc1ccc(-c2cc(C(F)(F)F)nn2-c2ccc(S(N)(=O)=O)cc2)cc1 [Celecoxib, reference compound] was tested. Which “improvement of compression thresholds vs vehicle” value ([1]; 1-hour) did it give?
Its value is “did not significantly improve thresholds”.

And the “improvement of compression thresholds vs vehicle” value ([1]; 2-hour and 4-hour)?
The value was “did show improvement compared to vehicle”.

What does the source list for CC(C)C[C@H]1CN2C(=CC3=NC[C@H](C(C)C)N3C[C@@H]2Cc2ccc(O)cc2)N1CCc1ccccc1 [Compound 1, 4-(((2S,5S,8S)-2-isobutyl-8-isopropyl-1-phenethyl-2,3,5,6,8,9-hexahydro-1H-diimidazo[1,2-d:2′,1′-g][1,4]diazepin-5-yl)methyl)phenol]?
pain behaviors, effect of low dose ([2]; 1 mg/kg IP, phase 2, compared with ICI204448 10 mg/kg): the same effect as a high dose of ICI204448; pain response, effect of high dose ([2]; 10 mg/kg IP, phase 2): complete elimination of the pain response; time spent on pain (nociceptive) behaviors vs ICI204448 ([2]; 30-35 minutes, Compound 1 dose less than 10% of ICI204448 on a molar basis): at least as effective as ICI204448; pain behaviors (biting and licking of formalin-injected paw) ([2]; IP 30 min before formalin, 20-25, 25-30, 30-35 minutes (phase 2), compared with vehicle and ICI204448): reduced pain behaviors; reversal of mechanical hyperalgesia (JCT) ([1]; 1 mg/kg IP, 2-hour and 4-hour): significantly reversed mechanical hyperalgesia; reversal of mechanical hyperalgesia (JCT) ([1]; 5 mg/kg IP, 2-hour and 4-hour): significantly reversed mechanical hyperalgesia; reversal of mechanical hyperalgesia (JCT) ([1]; 10 mg/kg IP, 1, 2, and 4 hours post dose): significantly reversed mechanical hyperalgesia; reversal in mechanical hyperalgesia compared with active control ([1]; Compound 1 IP vs celecoxib 30 mg/kg PO): comparable to the active control, celecoxib; reversal of SNL-induced mechanical hyperalgesia ([3]; 1 mg/kg IP, any time point tested (1, 2, 4 hours)): did not significantly reverse SNL-induced mechanical hyperalgesia; reversal of SNL-induced mechanical hyperalgesia ([3]; 5 mg/kg IP, 1-hour): did not significantly reverse SNL-induced mechanical hyperalgesia; reversal of SNL-induced mechanical hyperalgesia ([3]; 5 mg/kg IP, 2-hour and 4-hour): did significantly reverse SNL-induced mechanical hyperalgesia; reversal of SNL-induced mechanical hyperalgesia ([3]; 10 mg/kg IP, 1-hour): did not significantly reverse SNL-induced mechanical hyperalgesia; reversal of SNL-induced mechanical hyperalgesia ([3]; 10 mg/kg IP, 2-hour and 4-hour): did significantly reverse SNL-induced mechanical hyperalgesia; reversal of mechanical hyperalgesia compared with active control ([3]; Compound 1 5 mg/kg and 10 mg/kg vs gabapentin 100 mg/kg): did not differ significantly from the active control, gabapentin; reversal of hind limb weight bearing asymmetry vs pre-dosing baseline ([4]; 10 mg/kg IP, 4 hours): significant reversal of hind limb weight bearing asymmetry

For NCC1(CC(=O)O)CCCCC1 [Gabapentin, reference compound], which “reversal of SNL-induced mechanical hyperalgesia” value ([3]; 100 mg/kg IP, 1, 2, and 4-hours) is on record?
Its value is “significantly reversed SNL-induced mechanical hyperalgesia”.

For CN1CC[C@]23c4c5ccc(O)c4O[C@H]2[C@@H](O)C=C[C@H]3[C@H]1C5 [Morphine], which “reversal of hind limb weight bearing asymmetry vs pre-dosing baseline” value ([4]; 6 mg/kg subcutaneous, 1 and 2 hours) is on record?
Its value is “time-dependent reversal of hind limb weight bearing asymmetry”.

And the improvement in weight-bearing ([4]; 6 mg/kg subcutaneous, 4-hours)?
The improvement in weight-bearing was “did not produce significant improvement”.
